Test results as given in article PMC6264390, “Design, Synthesis and Structure-activity Studies of Rhodanine Derivatives as HIV-1 Integrase Inhibitors” (Molecules, 2010).
Where two headings read alike, the source gives them in different places.

Assays:
[1] = target: T1, human apurinic/apyrimidinic endonuclease 1 (APE1) (Homo sapiens, UniProt P27695); test: APE1 inhibition assay; assay type: biochemical; conditions: read-out: Inhibition of APE1 catalytic activity IC50
T1 construct: His; made in house
Experimental: (§1) All compounds were dissolved in DMSO to a final stock concentration of 10 mM and stored at −20 °C. Initial screening for IN inhibitory effect was done at 100 μM and dilutions were made in DMSO. Compounds showing at least 50% inhibition at 100 μM were selected for IC50 determinations. γ-[^32P]-ATP was purchased from Perkin Elmer (Waltham, MA, USA). The expression system for wild-type IN was a generous gift of Dr. Robert Craigie, Laboratory of Molecular Biology, NIDDK, NIH (Bethesda, MD, USA). His-tagged APE1 was purified from an expression system kindly provided by Dr. Tom Curran, Department of Developmental Neurobiology, St. Jude Children’s Research Hospital (Memphis, TN, USA).
(§2) 21-mer oligonucleotides used in IN inhibition assay [21top (5’-[…]-3’) and 21bot (5’-ACTGCTAGAGATTTTCCA CAC-3’)] were purchased from Integrated DNA Technologies (Coralville, IA, USA) and purified by UV shadowing on polyacrylamide gel. The oligonucleotides used in APE1 inhibition assay [top strand: 5′-ATTTCACCGGTACG(F)TCTAGAATC CG-3′ containing the tetrahydrofuran synthetic abasic residue (F), and bottom strand: 3′-TAAAGTGG CCATGC(C)AGATCTTAGGC-5′] were purchased from The Midland Certified Reagent Company (Midland, TX, USA). To analyze the extent of 3’-processing and strand transfer with 5’-end labeled substrates, 21top was 5’-end labeled using T4 polynucleotide kinase (Epicentre, Madison, WI, USA) and [γ-^32P]-ATP (Perkin Elmer, Waltham, MA, USA). The kinase was heat-inactivated at 95 °C and 21bot was added in […]. The reaction mixture was allowed to cool slowly to room temperature, and purified through a spin-25 minicolumn (USA Scientific, Ocala, FL, USA) to separate annealed double-stranded oligonucleotide from unincorporated material. The oligonucleotides used in the APE1 inhibition assay were labeled using a similar protocol.
APE1 inhibition assay was performed as previously described. To determine the extent of endonucleolytic cleavage of the abasic residue, the test compounds, diluted in DMSO, were preincubated with recombinant APE1 at a final concentration of 0.05 nM in the reaction buffer [50 mM NaCl, 1 mM HEPES, pH 7.5, 50 μM EDTA, 50 μM dithiothreitol, 10% glycerol (w/v), 7.5 mM MnCl2, 0.1 mg mL‑1 bovine serum albumin, 10 mM 2-mercaptoethanol, 10% DMSO, and 25 mM MOPS, pH 7.2] at 30 °C for 10 min. Following preincubation, 200 nM of the 5′-end ^32P-labeled linear oligonucleotide substrate was added, and incubated for an additional 10 minutes. Reactions were quenched by the addition of an equal volume (16 μL) of loading dye (98% deionized formamide, 10 mM EDTA, 0.025% xylene cyanol, and 0.025% bromophenol blue). An aliquot (5 μL) was electrophoresed on a denaturing 20% polyacrylamide gel (0.09 M tris-borate pH 8.3, 2 mM EDTA, 20% acrylamide, 8 M urea). The gels were dried, exposed in a PhosphorImager cassette and analyzed using a Typhoon 8610 Variable Mode Imager (Amersham Biosciences). Quantification of enzyme inhibition was done using Image Quant 5.2 software. The percent inhibition (% I) was calculated using the following equation: %I = 100 × [1 − (D − C) / (N − C)] where C, N, and D are the fractions of 26-mer substrate converted to 13-mer incision products (or integration products) for DNA alone, DNA plus APE1, and DNA, APE1 plus test compound, respectively. IC50 values were determined by plotting the logarithm of compound concentration as a function of %I to obtain the concentration that produced 50% inhibition. An optimum concentration of APE1 enzyme, at which there is complete conversion of the synthetic abasic-site containing oligonucleotide substrate to its cleaved product without subsequent exonuclease activity, was used in the assay.

[2] = target: T2, HIV-1 IN (Human immunodeficiency virus type 1 group M subtype B, UniProt P12497); test: In vitro IN inhibition assay (3’-processing and strand transfer); assay type: biochemical; conditions: for IC50: Mn2+ cofactor (7.5 mM MnCl2)
T2 construct: pre-incubated with purified recombinant IN (at a final concentration of 200 nM); made in house
Experimental: as §1, §2
To determine the extent of 3’-processing and strand transfer, the test compounds, diluted in DMSO, were pre-incubated with purified recombinant IN (at a final concentration of 200 nM) in the reaction buffer [50 mM NaCl, 1 mM HEPES (pH 7.5), 50 μM EDTA, 50 μM dithiothreitol, 10% glycerol (w/v), 7.5 mM MnCl2, 0.1 mg mL–1 bovine serum albumin, 10 mM 2-mercaptoethanol, 10% dimethyl sulfoxide, and 25 mM MOPS (pH 7.2)] at 30 °C for 30 min. For Mg^2+ assay, 7.5 mM MgCl2 was substituted for MnCl2 and an optimal concentration of PEG was included in the reaction buffer. Following the pre-incubation, 20 nM of the 5’-end ^32P-labeled linear oligonucleotide substrate was added to the reaction mixture and incubated for an additional 1 h. Reactions were quenched by addition of 50X loading dye (98% deionized formamide, 10 mM EDTA, 0.025% xylene cyanol, and 0.025 % bromophenol blue). An aliquot was subjected to electrophoresis on a denaturing polyacrylamide gel (0.09 M tris–borate, pH 8.3, 2 mM EDTA, 20% acrylamide, 8M urea). Gels were dried under vacuum, exposed in a PhosphorImager cassette and visualized with a Typhoon 8610 Variable Mode Imager (Amersham Biosciences). Quantification was done with Image Quant 5.2 software. Percent inhibition (%I) was calculated using the following equation: %I = 100 × [1 − (D − C) / (N − C)] where C, N, and D are the fractions of 21-mer substrate converted into 19-mer (product of 3’-processing) or strand-transfer products for DNA alone, DNA plus IN, and DNA, IN plus test compound, respectively. IC50 values were determined by plotting the logarithm of test compound concentrations as a function of %I to obtain the concentration that produced 50% inhibition.

[3] = read-out: Inhibition of IN catalytic activity IC50, 3’-Processing
[4] = read-out: Inhibition of IN catalytic activity IC50, Strand Transfer

T1 sequence (P27695 whole entry): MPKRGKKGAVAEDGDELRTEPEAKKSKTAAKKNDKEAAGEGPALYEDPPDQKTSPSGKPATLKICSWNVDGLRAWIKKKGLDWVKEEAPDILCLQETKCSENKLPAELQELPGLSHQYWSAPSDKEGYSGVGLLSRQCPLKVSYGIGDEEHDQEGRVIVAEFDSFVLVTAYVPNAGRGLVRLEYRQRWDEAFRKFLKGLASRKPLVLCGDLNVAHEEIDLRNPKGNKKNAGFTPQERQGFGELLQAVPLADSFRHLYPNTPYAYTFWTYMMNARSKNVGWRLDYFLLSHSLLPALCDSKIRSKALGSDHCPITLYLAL

Structure (SMILES) | IC50 [1] | melting point | IC50 [2, 3] | IC50 [2, 4] | IN inhibition (in words) ([2]; highest concentration tested 100 μM)
CCOc1cccc(C=C2SC(=S)N(NC(=S)C(=O)Nc3cc(OC)c(OC)c(OC)c3)C2=O)c1O [Compound 31, 2-{[5-(3-Ethoxy-2-hydroxybenzylidene)-4-oxo-2-thioxo-1,3-thiazolidin-3-yl]amino}-2-thioxo-N-(3,4,5-trimethoxyphenyl)acetamide] | > 100 µM | 231 to 232 °C | > 100 µM | > 100 µM | 
CCN(CC)c1ccc(C=C2SC(=S)N(NC(=S)C(=O)Nc3cc(OC)c(OC)c(OC)c3)C2=O)c(O)c1 [Compound 33, 2-({5-[4-(Diethylamino)-2-hydroxybenzylidene]-4-oxo-2-thioxo-1,3-thiazolidin-3-yl}amino)-2-thioxo-N-(3,4,5-trimethoxyphenyl)acetamide] | > 100 µM | 210 to 211 °C | > 100 µM | > 100 µM | 
O=C(Nc1ccc(O)cc1)C(=S)NN1C(=O)C(=Cc2cc(Br)ccc2O)SC1=S [Compound 42, 2-{[5-(5-Bromo-2-hydroxybenzylidene)-4-oxo-2-thioxo-1,3-thiazolidin-3-yl]amino}-N-(4-hydroxy-phenyl)-2-thioxoacetamide] | > 100 µM | 190 to 191 °C | > 100 µM | > 100 µM | 
C=CCc1cccc(C=C2SC(=S)N(NC(=S)C(=O)Nc3cc(OC)c(OC)c(OC)c3)C2=O)c1O [Compound 32, 2-{[5-(3-Allyl-2-hydroxybenzylidene)-4-oxo-2-thioxo-1,3-thiazolidin-3-yl]amino}-2-thioxo-N-(3,4,5-trimethoxyphenyl)acetamide] | > 100 µM | 174 to 175 °C | 82 ± 5 µM | 83 ± 3 µM | 
Cc1cc(NC(=O)C(=S)NN2C(=O)/C(=C\c3ccc([N+](=O)[O-])o3)SC2=S)ccc1-n1cnnn1 [Compound 21, N-[3-methyl-4-(1H-tetrazol-1-yl)phenyl]-2-{5-[(5-nitro-2-furyl)methylene]-4-oxo-2-thioxo-1,3-thia-zolidin-3-yl}amino-2-thioxoacetamide] | > 100 µM | 161 to 162 °C | > 100 µM | > 100 µM | 
O=C(Nc1ccc(O)cc1)C(=S)NN1C(=O)C(=Cc2cc(Cl)cc(Cl)c2O)SC1=S [Compound 50, 2-{[5-(3,5-Dichloro-2-hydroxybenzylidene)-4-oxo-2-thioxo-1,3-thiazolidin-3-yl]amino}-N-(4-hydroxy-phenyl)-2-thioxoacetamide] | > 100 µM | 217 to 218 °C | 60 µM | 55 µM | 
COc1cc(Br)cc(C=C2SC(=S)N(NC(=S)C(=O)Nc3ccc(O)cc3)C2=O)c1O [Compound 52, 2-{[5-(5-Bromo-2-hydroxy-3-methoxybenzylidene)-4-oxo-2-thioxo-1,3-thiazolidin-3-yl]amino}-N-(4-hydroxyphenyl)-2-thioxoacetamide] | > 100 µM | 176 to 177 °C | 38 ± 27 µM | 23 ± 9 µM | 
C=CCc1cccc(C=C2SC(=S)N(NC(=S)C(=O)Nc3ccc(O)cc3)C2=O)c1O [Compound 46, 2-{[5-(3-Allyl-2-hydroxybenzylidene)-4-oxo-2-thioxo-1,3-thiazolidin-3-yl]amino}-N-(4-hydroxy-phenyl)-2-thioxoacetamide] | > 100 µM | 153 to 154 °C | > 100 µM | 100 µM | 
COc1cc(NC(=O)C(=S)NN2C(=O)C(=Cc3cc(Br)cc(Br)c3O)SC2=S)cc(OC)c1OC [Compound 37, 2-{[5-(3,5-Dibromo-2-hydroxybenzylidene)-4-oxo-2-thioxo-1,3-thiazolidin-3-yl]amino}-2-thioxo-N-(3,4,5-trimethoxyphenyl)acetamide] | > 100 µM | 221 to 222 °C | 33 ± 7 µM | 35 ± 6 µM | 
O=C(Nc1ccc(F)cc1)C(=S)NN1C(=O)C(=Cc2ccc(Cl)cc2)SC1=S [Compound 6, 2-{[5-(4-Chlorobenzylidene)-4-oxo-2-thioxo-1,3-thiazolidin-3-yl]amino}-N-(4-fluorophenyl)-2-thioxo-acetamide] | > 100 µM | 204 to 205 °C | > 100 µM | > 100 µM | 
O=C(Nc1ccc(O)cc1)C(=S)NN1C(=O)C(=Cc2ccc(O)c(C(=O)O)c2)SC1=S [Compound 49, 2-Hydroxy-5-{[3-({2-[(4-hydroxyphenyl)amino]-2-oxoethanethioyl}amino)-4-oxo-2-thioxo-1,3-thiazolidin-5-ylidene]methyl}benzoic acid] | > 100 µM | 223 to 224 °C | 80 µM | 45 µM | 
O=C(Nc1ccccc1)C(=S)NN1C(=O)C(=Cc2c[nH]c3ccccc23)SC1=S [Compound 10, 2-{[5-(1H-indol-3-ylmethylene)-4-oxo-2-thioxo-1,3-thiazolidin-3-yl]amino}-N-phenyl-2-thioxo-acetamide] | > 100 µM | 206 to 207 °C | > 100 µM | > 100 µM | abolished any activity
CCOc1cc(-n2cnnn2)c(OCC)cc1NC(=O)C(=S)NN1C(=O)C(=Cc2cc(OC)c(OC)c(OC)c2)SC1=S [Compound 23, N-[2,5-diethoxy-4-(1H-tetrazol-1-yl)phenyl]-2-{[4-oxo-2-thioxo-5-(3,4,5-trimethoxybenzylidene)-1,3-thiazolidin-3-yl]amino}-2-thioxoacetamide] | 83 µM | 158 to 159 °C | > 100 µM | > 100 µM | 
O=C(Nc1ccc(F)cc1)C(=S)NN1C(=O)C(=Cc2ccc([N+](=O)[O-])o2)SC1=S [Compound 12, N-(4-fluorophenyl)-2-{5-[(5-nitro-2-furyl)methylene]-4-oxo-2-thioxo-1,3-thiazolidin-3-yl}amino-2-thioxoacetamide] | 89 ± 13 µM | 155 to 156 °C | 100 µM | 93 µM | 
